# Target: T1, human PAH with the R408W mutation (Homo sapiens, UniProt P00439, R408W)
# T1 construct: expressed in transfected cells
# T1 sequence (P00439 1-452 R408W): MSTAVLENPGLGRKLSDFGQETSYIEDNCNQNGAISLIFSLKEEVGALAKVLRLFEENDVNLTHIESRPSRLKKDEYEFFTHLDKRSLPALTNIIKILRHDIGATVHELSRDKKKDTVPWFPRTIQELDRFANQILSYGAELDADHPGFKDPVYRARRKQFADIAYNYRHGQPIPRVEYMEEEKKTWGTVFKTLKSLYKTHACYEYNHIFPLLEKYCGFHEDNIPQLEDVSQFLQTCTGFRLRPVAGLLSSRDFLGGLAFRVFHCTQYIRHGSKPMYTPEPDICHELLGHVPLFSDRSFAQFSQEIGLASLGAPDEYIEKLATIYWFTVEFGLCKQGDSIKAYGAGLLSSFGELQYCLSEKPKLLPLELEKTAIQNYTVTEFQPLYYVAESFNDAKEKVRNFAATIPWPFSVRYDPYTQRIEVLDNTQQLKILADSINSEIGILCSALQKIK
# Assay: Cell Based Phenylalanine Flux Assay
# Details: A375 cells expressing human R408W PAH; 24 hrs compound incubation; 13C-Tyrosine by LC-MS; average where tested multiple times; read-out: AC50
row,SMILES,AC50
1,"O=C(c1nnc(-c2ccc(F)cc2F)o1)N1CCc2[nH]cnc2[C@@H]1c1nc2ccccc2s1 [Example 1812, (R)-(4-(benzo[d]thiazol-2-yl)-6,7-dihydro-1H-imidazo[4,5-c]pyridin-5(4H)-yl)(5-(2,4-difluorophenyl)-1,3,4-oxadiazol-2-yl)methanone]",500 to 1000 nM
2,Cn1ncnc1C(=O)N1CCc2[nH]cnc2[C@H]1c1nc2ccccc2s1 [Example 1813],500 to 1000 nM
3,"Cn1ncnc1C(=O)N1CCc2[nH]cnc2[C@@H]1c1nc2ccccc2s1 [Example 1814, (R)-(4-(benzo[d]thiazol-2-yl)-6,7-dihydro-1H-imidazo[4,5-c]pyridin-5(4H)-yl)(1-methyl-1H-1,2,4-triazol-5-yl)methanone]",> 5000 nM
4,"O=C(c1cc(C(F)(F)F)n[nH]1)N1CCc2[nH]cnc2[C@@H]1c1nc2c(F)cccc2s1 [Example 1815, (R)-(4-(4-fluorobenzo[d]thiazol-2-yl)-6,7-dihydro-1H-imidazo[4,5-c]pyridin-5(4H)-yl)(3-(trifluoromethyl)-1H-pyrazol-5-yl)methanone]",1000 to 5000 nM
5,"O=C(c1cc(C(F)(F)F)n[nH]1)N1CCc2[nH]cnc2[C@H]1c1nc2c(F)cccc2s1 [Example 1816, (S)-(4-(4-fluorobenzo[d]thiazol-2-yl)-6,7-dihydro-1H-imidazo[4,5-c]pyridin-5(4H)-yl)(3-(trifluoromethyl)-1H-pyrazol-5-yl)methanone]",1000 to 5000 nM
6,O=C(c1ccnn1C(F)F)N1CCc2[nH]cnc2[C@H]1c1nc2ccccc2s1 [Example 1817],< 500 nM
7,"O=C(c1ccnn1C(F)F)N1CCc2[nH]cnc2[C@@H]1c1nc2ccccc2s1 [Example 1818, (R)-(4-(benzo[d]thiazol-2-yl)-6,7-dihydro-1H-imidazo[4,5-c]pyridin-5(4H)-yl)(1-(difluoromethyl)-1H-pyrazol-5-yl)methanone]",1000 to 5000 nM
8,Cn1ncc(C(=O)N2CCc3[nH]cnc3[C@H]2c2nc3ccccc3s2)c1C(F)F [Example 1819],500 to 1000 nM
9,"Cn1ncc(C(=O)N2CCc3[nH]cnc3[C@@H]2c2nc3ccccc3s2)c1C(F)F [Example 1820, (R)-(4-(benzo[d]thiazol-2-yl)-6,7-dihydro-1H-imidazo[4,5-c]pyridin-5(4H)-yl)(5-(difluoromethyl)-1-methyl-1H-pyrazol-4-yl)methanone]",> 5000 nM
10,Cn1cc(C(=O)N2CCc3[nH]cnc3[C@H]2c2nc3ccccc3s2)c(C(F)F)n1 [Example 1821],< 500 nM
11,"Cn1cc(C(=O)N2CCc3[nH]cnc3[C@@H]2c2nc3ccccc3s2)c(C(F)F)n1 [Example 1822, (R)-(4-(benzo[d]thiazol-2-yl)-6,7-dihydro-1H-imidazo[4,5-c]pyridin-5(4H)-yl)(3-(difluoromethyl)-1-methyl-1H-pyrazol-4-yl)methanone]",1000 to 5000 nM
12,"O=C(c1nnc(-c2cnn(C(F)F)c2)o1)N1CCc2[nH]cnc2[C@@H]1c1nc2c(F)cccc2s1 [Example 1823, (R)-(5-(1-(difluoromethyl)-1H-pyrazol-4-yl)-1,3,4-oxadiazol-2-yl)(4-(4-fluorobenzo[d]thiazol-2-yl)-6,7-dihydro-1H-imidazo[4,5-c]pyridin-5(4H)-yl)methanone]",1000 to 5000 nM
13,"O=C(c1nnc(-c2cnn(C(F)F)c2)o1)N1CCc2[nH]cnc2[C@H]1c1nc2c(F)cccc2s1 [Example 1824, (S)-(5-(1-(difluoromethyl)-1H-pyrazol-4-yl)-1,3,4-oxadiazol-2-yl)(4-(4-fluorobenzo[d]thiazol-2-yl)-6,7-dihydro-1H-imidazo[4,5-c]pyridin-5(4H)-yl)methanone]",< 500 nM
14,"Cn1ccc(-c2nnc(C(=O)N3CCc4[nH]cnc4[C@@H]3c3nc4c(F)cccc4s3)o2)n1 [Example 1825, (R)-(4-(4-fluorobenzo[d]thiazol-2-yl)-6,7-dihydro-1H-imidazo[4,5-c]pyridin-5(4H)-yl)(5-(1-methyl-1H-pyrazol-3-yl)-1,3,4-oxadiazol-2-yl)methanone]",500 to 1000 nM
15,"Cn1ccc(-c2nnc(C(=O)N3CCc4[nH]cnc4[C@H]3c3nc4c(F)cccc4s3)o2)n1 [Example 1826, (S)-(4-(4-fluorobenzo[d]thiazol-2-yl)-6,7-dihydro-1H-imidazo[4,5-c]pyridin-5(4H)-yl)(5-(1-methyl-1H-pyrazol-3-yl)-1,3,4-oxadiazol-2-yl)methanone]",< 500 nM
16,"O=C(c1nnc(-c2cnn(C3CCC3)c2)o1)N1CCc2[nH]cnc2[C@@H]1c1nc2ccccc2s1 [Example 1827, (R)-(4-(benzo[d]thiazol-2-yl)-6,7-dihydro-1H-imidazo[4,5-c]pyridin-5(4H)-yl)(5-(1-cyclobutyl-1H-pyrazol-4-yl)-1,3,4-oxadiazol-2-yl)methanone]",1000 to 5000 nM
17,O=C(c1nnc(-c2cnn(C3CCC3)c2)o1)N1CCc2[nH]cnc2[C@H]1c1nc2ccccc2s1 [Example 1828],< 500 nM

row,SMILES,AC50
1,"O=C(c1nnc(-c2ccc(C(F)(F)F)cn2)o1)N1CCc2[nH]cnc2[C@@H]1c1nc2ccccc2s1 [Example 1829, (R)-(4-(benzo[d]thiazol-2-yl)-6,7-dihydro-1H-imidazo[4,5-c]pyridin-5(4H)-yl)(5-(5-(trifluoromethyl)pyridin-2-yl)-1,3,4-oxadiazol-2-yl)methanone]",1000 to 5000 nM
2,O=C(c1nnc(-c2ccc(C(F)(F)F)cn2)o1)N1CCc2[nH]cnc2[C@H]1c1nc2ccccc2s1 [Example 1830],500 to 1000 nM
3,O=C(c1oc(COC(F)(F)F)nc1C(F)F)N1CCc2[nH]cnc2[C@H]1c1nc2ccccc2s1 [Example 1831],< 500 nM
4,"O=C(c1oc(COC(F)(F)F)nc1C(F)F)N1CCc2[nH]cnc2[C@@H]1c1nc2ccccc2s1 [Example 1832, (R)-(4-(benzo[d]thiazol-2-yl)-6,7-dihydro-1H-imidazo[4,5-c]pyridin-5(4H)-yl)(4-(difluoromethyl)-2-((trifluoromethoxy)methyl)oxazol-5-yl)methanone]",1000 to 5000 nM
5,"CC(C)(F)c1nnc(C(=O)N2CCc3[nH]cnc3[C@@H]2c2nc3ccccc3s2)o1 [Example 1833, (R)-(4-(benzo[d]thiazol-2-yl)-6,7-dihydro-1H-imidazo[4,5-c]pyridin-5(4H)-yl)(5-(2-fluoropropan-2-yl)-1,3,4-oxadiazol-2-yl)methanone]",1000 to 5000 nM
6,CC(C)(F)c1nnc(C(=O)N2CCc3[nH]cnc3[C@H]2c2nc3ccccc3s2)o1 [Example 1834],< 500 nM
7,"CC(C)(F)c1nnc(C(=O)N2CCc3[nH]cnc3[C@@H]2c2nc3c(F)cccc3s2)o1 [Example 1835, (R)-(4-(4-fluorobenzo[d]thiazol-2-yl)-6,7-dihydro-1H-imidazo[4,5-c]pyridin-5(4H)-yl)(5-(2-fluoropropan-2-yl)-1,3,4-oxadiazol-2-yl)methanone]",1000 to 5000 nM
8,"CC(C)(F)c1nnc(C(=O)N2CCc3[nH]cnc3[C@H]2c2nc3c(F)cccc3s2)o1 [Example 1836, (S)-(4-(4-fluorobenzo[d]thiazol-2-yl)-6,7-dihydro-1H-imidazo[4,5-c]pyridin-5(4H)-yl)(5-(2-fluoropropan-2-yl)-1,3,4-oxadiazol-2-yl)methanone]",< 500 nM
9,O=C(C1CN(c2ccc(F)cn2)C1)N1CCc2[nH]cnc2[C@H]1c1nc2ccccc2s1 [Example 1837],1000 to 5000 nM
10,"O=C(C1CN(c2ccc(F)cn2)C1)N1CCc2[nH]cnc2[C@@H]1c1nc2ccccc2s1 [Example 1838, (R)-(4-(benzo[d]thiazol-2-yl)-6,7-dihydro-1H-imidazo[4,5-c]pyridin-5(4H)-yl)(1-(5-fluoropyridin-2-yl)azetidin-3-yl)methanone]",> 5000 nM
11,Cn1nccc1C(=O)N1CCc2[nH]cnc2[C@H]1c1nc2ccccc2s1 [Example 1839],< 500 nM
12,"Cn1nccc1C(=O)N1CCc2[nH]cnc2[C@@H]1c1nc2ccccc2s1 [Example 1840, (R)-(4-(benzo[d]thiazol-2-yl)-6,7-dihydro-1H-imidazo[4,5-c]pyridin-5(4H)-yl)(1-methyl-1H-pyrazol-5-yl)methanone]",> 5000 nM
13,"Cn1cc(C(=O)N2CCc3[nH]cnc3[C@H]2c2nc3c(F)cccc3s2)c(C(F)F)n1 [Example 1841, (S)-(3-(difluoromethyl)-1-methyl-1H-pyrazol-4-yl)(4-(4-fluorobenzo[d]thiazol-2-yl)-6,7-dihydro-1H-imidazo[4,5-c]pyridin-5(4H)-yl)methanone]",< 500 nM
14,"Cn1cc(C(=O)N2CCc3[nH]cnc3[C@@H]2c2nc3c(F)cccc3s2)c(C(F)F)n1 [Example 1842, (R)-(3-(difluoromethyl)-1-methyl-1H-pyrazol-4-yl)(4-(4-fluorobenzo[d]thiazol-2-yl)-6,7-dihydro-1H-imidazo[4,5-c]pyridin-5(4H)-yl)methanone]",1000 to 5000 nM
15,"O=C(c1nnc(-c2cnn(CC(F)(F)F)c2)o1)N1CCc2[nH]cnc2[C@@H]1c1nc2c(F)cccc2s1 [Example 1843, (R)-(4-(4-fluorobenzo[d]thiazol-2-yl)-6,7-dihydro-1H-imidazo[4,5-c]pyridin-5(4H)-yl)(5-(1-(2,2,2-trifluoroethyl)-1H-pyrazol-4-yl)-1,3,4-oxadiazol-2-yl)methanone]",1000 to 5000 nM
16,"O=C(c1nnc(-c2cnn(CC(F)(F)F)c2)o1)N1CCc2[nH]cnc2[C@H]1c1nc2c(F)cccc2s1 [Example 1844, (S)-(4-(4-fluorobenzo[d]thiazol-2-yl)-6,7-dihydro-1H-imidazo[4,5-c]pyridin-5(4H)-yl)(5-(1-(2,2,2-trifluoroethyl)-1H-pyrazol-4-yl)-1,3,4-oxadiazol-2-yl)methanone]",500 to 1000 nM
17,Cc1c(-c2nnc(C(=O)N3CCc4[nH]cnc4[C@H]3c3nc4ccccc4s3)o2)cnn1C [Example 1845],< 500 nM

# From patent US20250171438A1 (Agios Pharmaceuticals, Inc., priority 2022, published 2025)
